From patent US7713960B2, “Inhibition of the Raf/Mek/P-Erk pathway for treating cancer” (University of South Florida, priority 2005, dated 2010)

Assays:
[1] = test system: MDA-MB-231 cells; assay: Alamar Blue proliferation assay, MDA-MB-231; type: cell-based, human; settings: MDA-MB-231; with ARA-211
Experimental: Cell Lines and Transfections—All cell lines used were obtained from American Type Tissue Collection (ATCC), (Manassas, Va.), or from the DCTD Tumor Repository, (Frederick, Md.). Propagation was carried out according to ATCC protocols. Propagation media was obtained from Invitrogen Corporation (Carlsbad, Calif.). DNA transfections were carried out using TransIT-LT1 transfection reagent (Takara Mirus, Madison, Wis.) according to the manufacturer's protocol. Briefly, 4×10^5 MDA-MB-231 cells were grown to approximately 70% confluency in medium supplemented with 10% FBS (Atlanta Biologicals, Atlanta, Ga.) in the absence of antibiotics. For transfection, LT1 was pre-incubated in 200 μl per transfection in Opti-MEM (Invitrogen) for 20 minutes prior to addition of plasmid. […]
Alamar Blue proliferation assay—For proliferation assays using exogenous constitutively activated MEK or the B2AR antagonist ICI-118.551, Alamar Blue metabolism assay used to determine cell viability according to the manufacturers protocol (Biosource, Camarillo, Calif.). […] Media/Alamar Blue was removed from the cells and aliquoted into 96 well plates (100 μl per well) and fluorescence read on a Wallac Victor 2 plate reader at excitation 540 nm, and emission 615 nm.

[2] = test system: P-Erk 1/2; assay: P-Erk 1/2 levels (Western blotting), MDA-MB-231; type: cell-based, human; settings: MDA-MB-231; with ARA-211
Experimental: Western Blotting—Treated cell samples were lysed in 30 mM HEPES, 10 mM NaCl, 5 mM MgCl2, 25 mM NaF, 1 mM EGTA, 1% Triton-X-100, 10% Glycerol, 2 mM Sodium orthovanidate, 10 μg/mL aprotinin, 10 μg/mL soybean trypsin inhibitor, 25 μg/mL leupeptin, 2 mM phenylmethylsulfonylfluoride (PMSF), 6.4 mg/mL p-nitrophenylphosphate for 30 minutes at 4° C., and proteins run on SDS-PAGE gels then transferred to nitrocellulose membranes. Membranes were blocked in either 5% milk in PBS, pH 7.4, containing 0.1% Tween-20 (PBS-T) or 1% BSA in TBS, pH 7.5, containing 0.1% Tween-20 (TBS-T). Phospho-STAT3 and phospho-AKT antibodies were diluted in 1% BSA in TBS-T while phospho-c-Raf, phospho-Mek, and phospho-p44/p42 MAPK antibodies (Cell Signaling) were diluted in 5% milk in PBS-T for either 1 hour at room temperature or overnight at 4° C. HRP-conjugated secondary antibodies (Jackson ImmunoResearch, West Grove, Pa.) were diluted in 5% milk in PBS-T or TBS-T at a 1:1000 dilution for one hour at room temperature. Western blots results were visualized using enhanced chemiluminescence. Stripping of the membranes for reblotting was done using stripping buffer (62.5 mM Tris pH 7.6, 2% SDS, 0.7% 2-mercaptoethanol) at 50° C. for 30 minutes.

[3] = test system: Rap-1; assay: Rap-1 activation assay, ACHN cells; type: cell-based, human; settings: 10 μM, 1 hour
Experimental: The effect of B2AR stimulation on Rap1 was investigated using the following methods: A Rap-1 activation assay kit (Upstate, Temecula, Calif.) was used according to protocol to determine if stimulation of the B2AR by ARA-211, and subsequent downstream signaling resulting in inhibition of P-Erk 1/2, is mediated by activation of Rap-1 directly by the Rap-1 guanine nucleotide exchange factor Epac. […] Cells were incubated with drugs for 1 hour unless noted otherwise. Cells were then lysed, the positive control lysate was incubated with 10 mM EDTA and 100 μM GTPγS and incubated for 30 minutes to load GTP onto Rap-1. Lysates from all samples were then incubated with 25 μg GST-RalGDS-Rap-1 binding domain beads for 45 minutes, washed with assay buffer 3×, resuspended in 40 μl of 2×Laemmli sample buffer and boiled for 5 minutes. Samples were resolved by SDS-PAGE electrophoresis, transferred to nitrocellulose, blotted overnight with 1 μ/ml polyclonal anti-Rap-1, and visualized by chemiluminescence.

[4] = biological target: T1, Mek-1 (Homo sapiens, UniProt Q02750); assay: In vitro kinase assay, Mek-1 immunoprecipitated from MDA-MB-231 cells; type: biochemical; settings: immunoprecipitated kinase treated in vitro, 10 μM
T1 construct: c-Raf-1 and Mek-1, immunoprecipitated from MDA-MB-231 cells; endogenous in cells; host or cells: MDA-MB-231
T1 sequence (Q02750 whole entry): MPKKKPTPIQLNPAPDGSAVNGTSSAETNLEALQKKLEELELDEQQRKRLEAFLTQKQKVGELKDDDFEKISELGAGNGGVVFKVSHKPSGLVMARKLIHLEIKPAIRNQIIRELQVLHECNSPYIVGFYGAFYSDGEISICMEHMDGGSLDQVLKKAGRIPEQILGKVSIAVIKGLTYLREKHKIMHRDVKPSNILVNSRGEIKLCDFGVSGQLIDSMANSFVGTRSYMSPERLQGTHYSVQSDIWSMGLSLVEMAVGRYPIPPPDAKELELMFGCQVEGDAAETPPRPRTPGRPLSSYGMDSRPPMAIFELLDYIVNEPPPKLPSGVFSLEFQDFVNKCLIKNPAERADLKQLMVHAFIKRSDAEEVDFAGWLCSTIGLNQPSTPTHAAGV
Experimental: In Vitro Kinase Assays—MDA-MB-231 cells (2×10^6) were lysed for 30 minutes at 4° C. in RIPA-150 buffer (10 mM Tris pH 7.5, 150 mM NaCl, 10% glycerol, 5 mM EDTA, 1% Triton X-100, 0.1% SDS, 100 μM sodium orthovanadate, 1 μM aprotinin, 10 μM leupeptin, 10 μM antipain). Cell debris was pelleted at 13000 rpm for 15 minutes at 4° C. and the lysate was rocked overnight with 10 μg of either c-Raf or MEK antibodies (Santa Cruz Biotechnologies, Santa Cruz, Calif.). 25 μl of protein A/G PLUS agarose (Santa Cruz Biotechnology) was then added and rocked for 4 hours at 4° C. Samples were spun at 2000 rpm for 5 minutes to collect the agarose beads, which were then washed four times with lysis buffer. On the final wash each pellet was divided into 5. […]

| Structure (SMILES) | Rap-1 activation (GTP-loaded Rap-1) [3] | other results |
| --- | --- | --- |
| Cc1ccc(OCC(O)C(C)NC(C)C)c2c1CCC2 (stereo not drawn) [ICI 118, 551] | – | effect of β2 AR antagonist on ARA-211 inhibition of tumor cell growth [1]: rescued human cancer cells from ARA-211 inhibition of tumor cell growth; effect of β2 antagonist on ARA-211 suppression of P-Erk 1/2 levels [2]: prevented ARA-211 from suppressing P-Erk 1/2 levels |
| CO[C@@H]1[C@@H]2OP(=O)(O)OC[C@H]2O[C@H]1n1c(Sc2ccc(Cl)cc2)nc2c(N)ncnc21 [EPAC activator, 8-(4-chlorophenylthio)-2′-O-methyladenosine-3′,5′-cyclic monophosphate] | activated Rap-1 | – |
| N#CC(=C(/N)Sc1ccccc1N)/C(C#N)=C(\N)Sc1ccccc1N [U-0126] | – | in vitro Mek-1 kinase activity [4]: blocked |
| O=S(=O)(NCCNC/C=C/c1ccc(Br)cc1)c1cccc2cnccc12 [H89] | had no effect on Rap-1 activation | – |
| CC(C)NCC(O)c1ccc(O)c(O)c1 (stereo not drawn) [isoproterenol] | activated Rap-1 | – |
